Experiments:
3T3-L1 adipocytes = experiment: DNA synthesis / cell proliferation (CyQUANT); assay type: cell-based, murine; details: 48 hours
Experimental: 3T3-L1 preadipocytes were incubated at a density of 8000 cells/cm^2 (10 cm^2 dish) and grown in Dulbecco's modified Eagle's medium (DMEM) containing 10% FBS and antibiotics (adipocyte medium) at 37° C. in 5% CO2 in air. Confluent preadipocytes were induced to differentiate with a standard differentiation medium consisting of DMEM-F 10 (1:1, vol/vol) medium supplemented with 1% FBS, 1 μM dexamethasone, IBMX (0.5 mM) and antibiotics (1% Penicillin-Streptomycin). Preadipocytes were maintained in this differentiation medium for 3 days and subsequently cultured in adipocyte medium. Cultures were re-fed every 2-3 days to allow 90% of cells to reach full differentiation before conducting chemical treatment. Chemicals were freshly diluted in adipocyte medium before treatment. Cells were washed with fresh adipocyte medium, re-fed with medium containing the different treatments, and incubated at 37° C. in 5% CO2 in air before analysis. Cell viability was measured via trypan blue exclusion. Cells were plated in DMEM with different treatment in duplicate in 96-well plates. After 48 h, a CyQUANT Cell Proliferation Kit (Molecular Probes, Eugene, Oreg.) was used following the manufacturer's protocol a microplate fluorometer (Packard Instrument Company, Inc., Downers Grove, Ill.) was used to measure CyQUANT fluorescence. Cell viability was determined by Trypan blue exclusion examination.

adiponectin = experiment: Adiponectin expression in differentiated 3T3-L1 adipocytes; assay type: cell-based, mouse; details: 100 nmol/L H2O2 or 1 μmol/L α±tocopherol, 48 h
Experimental: 3T3-L1 pre-adipocytes were incubated at a density of 8000 cells/cm^2 (10 cm^2 dish) and grown in Dulbecco's modified Eagle's medium (DMEM) containing 10% FBS and antibiotics (adipocyte medium) at 37° C. in 5% CO2 in air. Confluent pre-adipocytes were induced to differentiate with a standard differentiation medium consisting of DMEM-F10 (1:1, vol/vol) medium supplemented with 1% fetal bovine serum (FBS), 1 μM dexamethasone, isobutylmethylxanthine (IBMX) (0.5 mM) and antibiotics (1% Penicillin-Streptomycin). Pre-adipocytes were maintained in this differentiation medium for 3 days and subsequently cultured in adipocyte medium. Cultures were re-fed every 2-3 days to allow 90% cells to reach fully differentiation before conducting chemical treatment. […] Cell viability was measured via trypan blue exclusion. Adipocyte and muscle 18s, TNFα, IL-6, IL-8, IL-15 and adiponectin were quantitatively measured using a smart cycler real-time PCR system (Cepheid, Sunnyvale, Calif.) with a TaqMan 1000 Core Reagent Kit (Applied Biosystems, Branchburg, N.J.). […] Reactions of quantitative RT-PCR for standards and unknown samples were also performed according to the instructions of Smart Cycler System (Cepheid, Sunnyvale, Calif.) and TaqMan Real Time PCR Core Kit (Applied Biosystems, Branchburg, N.J.). The mRNA quantitation for each sample was further normalized using the corresponding 18s quantitation.

IL-6 = IL-6 expression in differentiated 3T3-L1 adipocytes; assay type: cell-based, mouse; details: for effect on IL-6 expression: 10 nmol/L, 48 h, adipocytes cultured alone
Experimental: 3T3-L1 pre-adipocytes were incubated at a density of 8000 cells/cm^2 (10 cm^2 dish) and grown in Dulbecco's modified Eagle's medium (DMEM) containing 10% FBS and antibiotics (adipocyte medium) at 37° C. in 5% CO2 in air. Confluent pre-adipocytes were induced to differentiate with a standard differentiation medium consisting of DMEM-F10 (1:1, vol/vol) medium supplemented with 1% fetal bovine serum (FBS), 1 μM dexamethasone, isobutylmethylxanthine (IBMX) (0.5 mM) and antibiotics (1% Penicillin-Streptomycin). Pre-adipocytes were maintained in this differentiation medium for 3 days and subsequently cultured in adipocyte medium. Cultures were re-fed every 2-3 days to allow 90% cells to reach fully differentiation before conducting chemical treatment.
Cells were incubated in serum free medium overnight before chemical treatment. Chemicals were freshly diluted in adipocyte medium before treatment. […] Cell viability was measured via trypan blue exclusion.
Adipocyte and muscle 18s, TNFα, IL-6, IL-8, IL-15 and adiponectin were quantitatively measured using a smart cycler real-time PCR system (Cepheid, Sunnyvale, Calif.) with a TaqMan 1000 Core Reagent Kit (Applied Biosystems, Branchburg, N.J.). The primers and probe sets were obtained from Applied Biosystems TaqMan® Assays-on-Demand™ Gene Expression primers and probe set collection and utilized according to manufacture's instructions. Pooled adipocyte total RNA was serial-diluted in the range of 1.5625-25 ng and used to establish a standard curve; and total RNA for the unknown samples were also diluted in this range. Reactions of quantitative RT-PCR for standards and unknown samples were also performed according to the instructions of Smart Cycler System (Cepheid, Sunnyvale, Calif.) and TaqMan Real Time PCR Core Kit (Applied Biosystems, Branchburg, N.J.). The mRNA quantitation for each sample was further normalized using the corresponding 18s quantitation.
RAW 264 macrophages and 3T3-L1 preadipocytes (American Type Culture Collection) were incubated at a density of 8000 cells/cm2 (10 cm2 dish) and grown in Dulbecco's modified Eagle's medium (DMEM) containing 10% FBS and antibiotics (adipocyte medium) at 37° C. in 5% CO2 in air. […]
Adipocyte and muscle 18s, CD14, TNFα, MIP, M-CSF, IL-6 and MCP-1 were quantitatively measured using a Smart Cycler Real Time PCR System (Cepheid, Sunnyvale, Calif.) with a TaqMan 1000 Core Reagent Kit (Applied Biosystems, Branchburg, N.J.). […] Reactions of quantitative RT-PCR for standards and unknown samples were also performed according to the instructions of Smart Cycler System (Cepheid, Sunnyvale, Calif.) and TaqMan Real Time PCR Core Kit (Applied Biosystems, Branchburg, N.J.). The mRNA quantitation for each sample was further normalized using the corresponding 18s quantitation.

Row | SMILES | increase of total DNA of cultured cells (3T3-L1 adipocytes; H2O2 100 nmol/L, p<0.001) [%] | effect on adiponectin production (adiponectin) | increase of IL-6 expression (IL-6; 100 nmol/L H2O2, 48 h, p<0.001) [%] | effect on glucose induced DNA synthesis (3T3-L1 adipocytes; added to glucose 30 mmol/L, nifedipine 10 μmol/L) | effect on IL-6 expression (IL-6) | effect on IL-6 expression (IL-6; listed as 1α, 25-(OH)2-D3) | effect on H2O2 induced DNA synthesis (3T3-L1 adipocytes; with H2O2 100 nmol/L, α-tocopherol 1 μmol/L, nifedipine 10 μmol/L) | effect on hydrogen peroxide increased IL-6 expression (IL-6; 1 μmol/L α±tocopherol plus 100 nmol/L H2O2, 48 h, p=0.016)
1 | OO [H2O2, hydrogen peroxide] | 39 | without significant effect | 167 |  |  |  |  | 
2 | C=C1/C(=C\C=C2/CCC[C@]3(C)[C@@H]([C@H](C)CCCC(C)(C)O)CC[C@@H]23)C[C@@H](O)C[C@@H]1O [calcitriol, 1, 25-Dihydroxyvitamin D] |  |  |  | augmented | markedly stimulate | markedly increased |  | 
3 | Cc1c(C)c2c(c(C)c1O)CC[C@@](C)(CCC[C@H](C)CCC[C@H](C)CCCC(C)C)O2 [α-tocopherol] |  | increased |  |  |  |  | completely blocked | attenuated

From US20070092577A1, “Dietary calcium for reducing the production of reactive oxygen species” (University of Tennessee Research Foundation, priority 2005, published 2007)
